# Results taken from patent publication USRE34918E, “Azaazulene compounds which are useful as antiallergic and antiinflammatory agents” (Kaken Pharmaceutical Co., Ltd., priority 1988, dated 1995).
# Experiments:
# 5-lipoxygenase = molecular target: T1, 5-lipoxygenase (Cavia porcellus, UniProt A0A286X958); experiment: 5-lipoxygenase inhibiting activity in guinea pig; assay type: biochemical; conditions: read-out: Inhibition rate against 5-lipoxygenase activity
# T1 construct: 5-lipoxygenase was prepared with polymorphonuclear leukocyte obtained from peritoneal cavity; endogenous in cells; host or cells: guinea pig peritoneal polymorphonuclear leukocytes (casein-elicited)
# T1 sequence (A0A286X958 1-674): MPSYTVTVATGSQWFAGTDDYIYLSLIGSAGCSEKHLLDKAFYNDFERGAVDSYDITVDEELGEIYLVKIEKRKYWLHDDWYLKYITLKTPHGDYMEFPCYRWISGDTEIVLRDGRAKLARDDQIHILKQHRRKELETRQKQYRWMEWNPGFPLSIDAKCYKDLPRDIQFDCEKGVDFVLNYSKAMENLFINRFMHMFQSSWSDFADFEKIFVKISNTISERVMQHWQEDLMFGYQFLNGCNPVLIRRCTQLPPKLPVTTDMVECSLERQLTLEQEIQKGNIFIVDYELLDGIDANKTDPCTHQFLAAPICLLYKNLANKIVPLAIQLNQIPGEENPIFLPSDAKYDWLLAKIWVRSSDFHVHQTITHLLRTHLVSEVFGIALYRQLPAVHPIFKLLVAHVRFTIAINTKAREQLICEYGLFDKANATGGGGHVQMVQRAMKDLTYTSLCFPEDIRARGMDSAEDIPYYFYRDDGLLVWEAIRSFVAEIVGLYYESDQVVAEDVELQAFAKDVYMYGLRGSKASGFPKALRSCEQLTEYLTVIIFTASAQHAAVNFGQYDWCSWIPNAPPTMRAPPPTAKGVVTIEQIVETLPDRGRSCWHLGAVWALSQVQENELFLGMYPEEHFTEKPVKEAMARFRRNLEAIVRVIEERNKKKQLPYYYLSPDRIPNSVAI
# Method: The test was carried out according to the method of Ochi [cf. J. Biol. Chem., 258, 5754-5758 (1983)]. Two % casein solution in saline was injected intraperitoneally into guinea pigs in an amount of 1/10 of body weight. After 16 hours, 5-lipoxygenase was prepared with polymorphonuclear leukocyte obtained from peritoneal cavity. Test compound and 5-lipoxygenase were pre-incubated at 30° C. for 10 minutes, CaCl2 (calcium chloride) and ^14 C-arachidonic acid were added thereto, and the resulting mixture was incubated for 20 minutes. A mixture of ethyl acetate/methanol/0.2M citric acid=30/4/1 (by volume) was added thereto to stop the reaction. After centrifugation, the organic solvent layer was spotted on a plate for thin layer chromatography and developed. Effect of the test compound was determined from the amount of ^14 C-5-hydroxyeicosatetraenoic acid (hereinafter referred to as "5-HETE") formed from ^14 C-arachidonic acid. Radioactivity of 5-HETE position was measured with a liquid scintillation counter.
# Inhibition rate against 5-lipoxygenase activity was calculated according to the following equation.
# Inhibition rate against 5-lipoxygenase activity [formula] A: Value of radioactivity in the control group B: Value of radioactivity in the test compound group
# Each test compound was used in a concentration of 10 μM.
# Acute toxicity in mouse = assay type: in vivo; conditions: 2 weeks observation
# Method: The test was carried out with the compounds obtained in Examples 5 and 9. Groups of 5 male ddy mice weighing 26 to 28 g were employed. The test compounds were suspended in a 0.5% CMC aqueous solution and the resulting suspension was administered orally in an amount of 500 for the compound obtained in Example 9, 1000 or 2000 mg/kg body weight. The survivors were kept under observation daily for 2 weeks. From the results shown in Table 6, the LD50 of the compounds obtained in Example 5 and 9 were estimated to be more than 2000 mg/kg. The other compounds of the present invention also had the same toxicity as the above compounds.
smiles,measurement,setting,value
"CC(C)c1cccc2n(Cc3ccc(F)cc3)c(=O)c(-c3nnn[nH]3)c-2c1 [Example 9, 1-(4-Fluorobenzyl)-5-iso-propyl-3-(5-tetrazolyl)-1-azaazulane-2-one]",inhibition at 10 µM,5-lipoxygenase,-5.4%
same,Mortality,Acute toxicity in mouse; 500 mg/kg p.o.,0/5
same,Mortality,Acute toxicity in mouse; 1000 mg/kg p.o.,0/5
same,Mortality,Acute toxicity in mouse; 2000 mg/kg p.o.,0/5
same,LD50 at 336 h,"Acute toxicity in mouse; mouse, in vivo, oral",> 2000 mg/kg
